According to patent publication US10786445B2 (BIOGEN CHESAPEAKE LLC, priority 2010, dated 2020):
Values joined by “and” are separate entries in the source; they are usually repeats but may differ in a detail not shown here. Equal values may be shown once. Read-outs that look alike come from different tables or passages of the source. Marks after values point to notes of the source that are not given here.

What was measured:
[1] = In-use stability testing of glyburide solutions (PVC contact, in-line filter, flushing protocols); type: physicochemical
Excerpt: One possible explanation is that glyburide adsorbs to PVC.

[2] = Study 101 Phase 1: plasma glyburide pharmacokinetics, bolus plus 72 h continuous infusion of RP-1127; type: in vivo, human
Procedure: All plasma concentration data were analyzed by nonlinear regression, simultaneously incorporating drug behavior during and after the infusion.

[3] = Preclinical experiments: filtering concentrated reconstituted glyburide, dilution into PVC-free bag; type: physicochemical
Procedure: In these experiments, the filtered material was diluted into a PVC-free bag (for example, the B Braun EXCEL L8000).
Patients in need of glyburide treatment include patients suffering from stroke, such as acute stroke (ischemic and hemorrhagic), traumatic brain injury (TBI), spinal cord injury (SCI), myocardial infarction (MI), shock (including hemorrhagic shock), organ ischemia, ventricular arrhythmias, ischemic injury; hypoxia/ischemia; and other injuries, conditions, and disorders.

[4] = Pharmacokinetics of glyburide after intravenous administration (published studies); type: in vivo, human
Excerpt: All patents and publications discussed herein are hereby incorporated by reference in their entireties.

[5] = Study 101 Phase 1: serum ALT and AST; type: in vivo, human; conditions: subject receiving 6 mg/day, treated with 4,309 calories over 24 hours, two thirds carbohydrates
[6] = cited from earlier work
blood glucose = assay: Study 101 Phase 1: blood glucose / hypoglycemia; conditions: for Effect on median blood glucose levels: FIG. 5; for Time at which dosing was stopped early due to the hypoglycemic effect: planned 72 h infusion
Procedure: Blood glucose was measured throughout the study, both to obtain pharmacodynamic information as well as for safety reasons. The dosing regimen was a bolus over 2 minutes followed by a continuous infusion for 72 hours.

[7] = 0.4 mg/day, limit of detection 0.5 ng/mL
[8] = Study 101, 0.4 and 3.0 mg/day (N = 26), nonlinear regression
[9] = both sexes, human, in vivo, iv, Morrison et al. 1982, healthy males and females, N 8, i.v. dose 2.4 mg
[10] = both sexes, human, in vivo, iv, Neugebauer et al. 1985, NIDDM males and females, N 20, i.v. dose 1.25 mg
[11] = both sexes, human, in vivo, iv, Rydberg et al. 1995, healthy males and females, N 8, i.v. dose 1.0 mg, normalized to 70 kg
[12] = male, human, in vivo, iv, McEwen et al. 1982, healthy males, N 20, i.v. dose 1.48 mg
[13] = Jonsson et al. 2000, healthy males and females, data from Caucasian patients, N 10, i.v. dose 2.0 mg
[14] = McEwen et al. 1982, healthy males, N 20, i.v. dose 1.48 mg
[15] = Morrison et al. 1982, healthy males and females, N 8, i.v. dose 2.4 mg
[16] = Neugebauer et al. 1985, NIDDM males and females, N 20, i.v. dose 1.25 mg
[17] = Rogers et al. 1982, healthy males and females, N 8, i.v. dose 1 mg
[18] = Sorgel et al. 1997, healthy males, N 24, i.v. dose 1.5 mg

COc1ccc(Cl)cc1C(=O)NCCc1ccc(S(=O)(=O)NC(=O)NC2CCCCC2)cc1 [Glyburide, 5-chloro-N-(4-[N-(cyclohexylcarbamoyl)sulfamoyl]phenethyl)-2-methoxybenzamide]
loss of glyburide in standard PVC bag ([1]; 10 μg/mL glyburide, PVC bag but not PVC tubing): acceptable amount of loss of glyburide | glyburide concentration after passage through a filter ([1]; 0.2 micron in-line filter): reduced | reduction in glyburide passing through the full chain of components ([1]; all components and flushing protocols): less than 10% | glyburide concentration on storage in PVC bags ([1]; glyburide concentrations below 10 μg/mL): reduced | glyburide concentration on contact with polyvinyl chloride (PVC) ([1]; solution passed through PVC tubing or stored in a PVC bag): reduced | mean steady state glyburide concentration (Css) ([2]; 17.3 μg bolus plus 0.4 mg/day, 72 h infusion): 3.8 ng/mL | mean Css ([2]; 130 μg bolus plus 3 mg/day, 72 h infusion): 25.3 ng/mL | Mean glyburide plasma level at treatment cessation ([2]; 0.4 mg/day): 4.4 ng/mL | Reduction of mean glyburide plasma levels within one hour of treatment cessation ([2]; 0.4 mg/day): 54% | Hour by which plasma levels were below the limits of detection in 50% of the patients [2, 7]: ≤ 76 h | Hour by which plasma levels were below the limits of detection in 100% of patients [2, 7]: ≤ 96 h | Hour by which plasma levels were below the limits of detection in 50% of the subjects ([2]; 3 mg/day): ≤ 84 h | Hour by which plasma levels were below the limits of detection in 100% of patients ([2]; 3 mg/day): ≤ 96 h | Mean glyburide plasma level at cessation of dosing ([2]; 3 mg/day): 27.3 ng/mL | Reduction of mean glyburide plasma levels within 1 hour of cessation of dosing ([2]; 3 mg/day): 57% | Dependence of pharmacokinetic parameters on covariates ([2]; Study 101): independent of dose, weight, height, body surface area, gender and age | clearance ([2]; Study 101, 0.4 and 3.0 mg/day (N = 26)): 54 mL/min/m^2 | T1/2α [2, 8]: 0.44 h | T1/2β [2, 8]: 3.31 h | Time to steady state following bolus administration ([2]; Study 101, bolus plus continuous infusion): 8 to 20 h | Time of minimum plasma glyburide concentration after commencement of dosing (median) ([2]; Study 101, drop following the initial bolus loading dose): 1.25 to 1.5 h | Cmax ([2]; both sexes, human, plasma, intravenous, 17.3 μg bolus plus 0.4 mg/day, 72 h infusion): 7.2 ng/mL | concentration at 1 h after treatment cessation ([2]; both sexes, human, plasma, intravenous, 0.4 mg/day): 2 ng/mL | concentration at 1 h after cessation of dosing ([2]; both sexes, human, plasma, intravenous, 3 mg/day): 11.9 ng/mL | clearance ([2]; both sexes, human, plasma, intravenous, Study 101, 0.4 and 3.0 mg/day (N = 26), read-out: Clearance): 95 mL/min and 1.44 mL/min/kg | Cmax ([2]; human, plasma, intravenous, 130 μg bolus plus 3 mg/day, 72 h infusion, one patient, read-out: Cmax (of all individual subjects)): 50.7 ng/mL | concentration at 2 h ([2]; human, plasma, intravenous, 433 μg bolus plus 10 mg/day, single subject, at hour 2 (BG below 70 mg/dL)): 57.9 ng/mL | concentration at 12 h ([2]; human, plasma, intravenous, 6 mg/day, single subject, at H12 (BG 68 mg/dL)): 64 ng/mL | Effect of filtering on glyburide concentration ([3]; 0.2 micron filter, at least about 10 μg/mL, preferably about 0.5-1 mg/mL or greater): does not significantly decrease the glyburide concentration | Loss of glyburide from glyburide solutions ([3]; filter 1 mg/mL concentrate, dilute into PVC-free bag, unfiltered polyethylene lined tubing): effective to reduce the loss of glyburide | Beta ([4]; Rydberg et al. 1995, healthy males and females, N 8, i.v. dose 1.0 mg, normalized to 70 kg): 0.52*‡ 1/h | clearance [4, 9]: 73.7 mL/min | half-life [4, 9]: 1.18 h | Vd [4, 10]: 11.6 L | clearance [4, 10]: 73.5 mL/min | Vd [4, 11]: 10.9 L | clearance [4, 11]: 91 mL/min | clearance ([4]; both sexes, human, plasma, iv, Jonsson et al. 2000, healthy males and females, data from Caucasian patients, N 10, i.v. dose 2.0 mg): 28 mL/min | Vd [4, 12]: 9.7 L | clearance [4, 12]: 48.7 mL/min | ALT and AST [5]: transient elevations in ALT and AST | mean glyburide Cmax after administration of the bolus ([6]; Groop et al. 1987, bolus dose followed by continuous i.v. infusion): 240 ng/mL | Cmax [6, 13]: 196 ng/mL | clearance [6, 13]: 101.3 mL/min | t1/2 [6, 13]: 1.15 h | Beta [6, 14]: 0.3 h⁻¹ | clearance [6, 14]: 49 mL/min | t1/2 [6, 14]: 2.46 h | Beta [6, 15]: 0.62 h⁻¹ | Cmax [6, 15]: 648 ng/mL | Vd [6, 15]: 7.4 L | clearance [6, 15]: 73.7 mL/min | Beta [6, 16]: 0.38 h⁻¹ | Cmax [6, 16]: 376 ng/mL | clearance [6, 16]: 73.5 mL/min | t1/2 [6, 16]: 1.82 h | Beta [6, 17]: 0.517 h⁻¹ | t1/2 [6, 17]: 1.47 h | t1/2 ([6]; Rydberg et al. 1995, healthy males and females, N 8, i.v. dose 1.0 mg): 1.47 ± 0.42 h | Cmax [6, 18]: 331 ± 65 ng/mL | Tmax [6, 18]: 5.4 min | Vd [6, 18]: 11.22 ± 3 L | clearance [6, 18]: 74.7 ± 22 mL/min | t1/2 [6, 18]: 4.22 ± 1 h | t1/2 ([6]; Spraul et al. 1989, healthy males and females, N 52, i.v. dose 4.0 mg): 1.50 ± 0.36 h | Maximum glyburide plasma concentrations ([6]; range over studies: Rogers et al. 1982, Groop et al. 1987, Bank et al. 2000, Jonsson et al. 2000): 200 to 436 ng/mL | Effect on median blood glucose levels (blood glucose; 0.4 mg/day vs placebo): very minor but visible effect on BG | Symptoms of hypoglycemia (blood glucose; 433 μg bolus plus 10 mg/day, single subject): classic symptoms of hypoglycemia but was always alert, oriented and conversant | blood glucose levels (blood glucose; 433 μg bolus plus 10 mg/day, single subject, H12-H22): 52 to 53 mg/dL | BG (blood glucose; 433 μg bolus plus 10 mg/day, single subject, hour 2): below 70 mg/dL | morning serum glucose (blood glucose; 433 μg bolus plus 10 mg/day, single subject, hour 22): below 50 mg/dL | Effect on median blood glucose levels (blood glucose; 3.0 mg/day vs placebo): more pronounced effect, without hypoglycemia | Hypoglycemia (blood glucose; 6 mg/day delivered as continuous infusion): severe hypoglycemia occurred | Time at which dosing was stopped early due to the hypoglycemic effect (blood glucose; 6 mg/day): around 32 hours | blood glucose levels (blood glucose; 6 mg/day, single subject, H0 to H8): above 70 mg/dL | blood glucose (blood glucose; 6 mg/day, single subject, after IV dextrose (10%) 100 cc/hour from approximately H29): 64 to 123 mg/dL | Signs of hypoglycemia (blood glucose; 6 mg/day, single subject, approximately H13.3, lasted 15 minutes): signs of hypoglycemia in the form of sweating (diaphoresis) and hunger | BG (blood glucose; 6 mg/day, single subject, at H12): 68 mg/dL | Hypoglycemia (blood glucose; 10 mg/day delivered as continuous infusion): severe hypoglycemia occurred | Time at which dosing was stopped early due to the hypoglycemic effect (blood glucose; 10 mg/day): around 24 hours
